Patent US8541216B2 (priority 2009, dated 2013)

System: beet armyworm eggs
Assay: beet armyworm egg bioassay of separated, semipurified dunaimycins (96-well artificial diet)
Format: in vivo, beet armyworm (Spodoptera exigua)
Method: The separated, identified dunaimycins were then tested for bioactivity against beet armyworm eggs as follows. Stock solutions were provided as 15% aqueous ethanol solution of various semipurified dunaimycins, either alone or in combinations. For reference purposes, Javelin WDG (Bacillus thuringiensis subspecies Kurstaki; ThermoTrilogy Inc) was weighed out and diluted to give a 1,000 ppm stock solution (positive chemical standard). These stock solutions were transferred to a deep well microtitre plate: 1.4 ml of each stock solutions were placed in the 2 ml well across the top row (A wells 1-12). A Packard Multiprobe II liquid handling system (Perkin Elmer Inc.) then carried out a dilution program, first adding 700 μls of DI H2O to the remaining 84 wells (B-H 1-12). The four tip arm then performed a sequence of aspiration and dispensing steps to mix the samples and then transferred them into an adjoining well to give eight 50% serially diluted samples containing 700 μl per well. The robot then used a transfer program to pipette all of the serial diluted samples to labeled 96 well plates. Aliquots containing 40 μl of each dilution were dispensed into six wells across a microtitre plate containing ˜200 μl of artificial diet/well. […] Mortality was recorded as the number dead over the number treated and expressed as control corrected percent mortality. […]

CCC(O)CC1OC2(CCC1C)CC1OC(=O)/C=C\C(C)C(O)C(C)C(O)CC(O)C(C)CCCCC/C=C/C(CC(C)C)C(=O)CC(O2)C1C (centres unmarked) [Dunaimycin A1]
LD50 (ppm) BAW assay (Tested alone): Inactive up to 1000 ppm
insecticidal activity (active or inactive dunaimycin) (classification of purified species, inactive up to about 1000 ppm): Inactive
